The test system of the data set is FHH rats with superimposed hypertension. Put plainly: FHH rat with superimposed hypertension (uninephrectomy, DOCA, 1% NaCl). It is filed as in vivo. As to the method:
Experiments were performed using male FHH rats of 9-12 weeks of age. These animals were provided by the University of Mississippi Medical Center and approved by the American Association for Accreditation of Laboratory Animal Care (AAALAC). All protocols were approved by the Institutional Animal Care and Use Committee of the University of Mississippi Medical Center. Rats were fed ad libitum, and provided with a purified AIN-76 rodent feed containing 0.4% NaCl (Dyets, Bethlehem, Pa.) after weaning. Fawn-hooded hypertensive (FHH) rat is a genetic model of spontaneous hypertension associated with glomerular hyperfiltration and proteinuria. In order to promote glomerular damage in this rat, DOCA strips were implanted after single (one) kidney extraction.
Specifically, FHH rats were anesthetized with isoflurane and telemetry transmitters (model TA11PAC40, Data Sciences International, St. Paul, Minn.) were implanted as described in ‘Williams, J. M. et al. […] Regul Integr Comp Physiol (2012)’. Briefly, surgery was performed under 2% to 3% isoflurane-O2, and the catheter of the device was inserted into the left femoral artery and guided upstream to the aorta. Body part of the telemetry unit was placed in the lateral cavity of the left leg and sutured with muscle tissue. Skin was then closed. To prevent infection, animals were given Baytril (10 mg/kg) and Rimadyl (5 mg/kg), a long-acting analgesic to control surgical pain. After surgery, rats were housed in individual cages in a quiet air-conditioned room environment with a 12:12 hour light-dark cycle and it took a week to fully recover from surgery. Thereafter, the basic mean arterial blood pressure (MAP) and proteinuria were measured for 4 hours (10 am to […]) before the rats were housed in the metabolic cage. Proteinuria was measured using the Bradford method and BSA (Bio-Rad Laboratories, Hercules, Calif.) as a standard.
One week after the transmitter insertion, rats were uninephrectomized as described in Wang, X. et al. Am J Physiol Renal Physiol (2016). Briefly, rats were anesthetized with 2-3% isoflurane-O2 and the right flank was dissected in aseptic condition. The right kidney was gently lifted and threaded tightly around the renal vessels and ureters. The right kidney was extracted by cutting the distal ends of the renal vessels and ureters. The incision was closed with a continuous subcutaneous stitch, after which the skin was further closed. After the rat's right kidney was removed, DOCA pellets (200 mg, Innovative Research of America) was subcutaneously implanted in the neck.
After single kidney extraction and DOCA transplant surgery, rats had recovery time for 3 days. Rats were provided with water containing 1% NaCl in place of distilled water, and randomly divided into two groups: Group 1 (n=15) was administered with BC-KI-00053 (25 mg/kg daily) by gastrointestinal gavage; Group 2 (n=15) was administered with the same volume (2.5 ml/kg daily) of vehicle (corn oil, polyethylene glycol 400, Tween 80 and methylcellulose) by gastrointestinal gavage. Blood pressure and proteinuria were measured weekly for 3 weeks in the experimental group. At the end of the experiment, rats were anesthetized with isoflurane and blood samples were taken to measure creatinine levels. Rats were then flushed with 50 ml of 0.9% NaCl through aorta and perfused with 20 ml of 4% paraformaldehyde. Kidneys and hearts were collected for histological evaluation.
Paraffin sections prepared with a thickness of […] were stained with Masson's trichrome to measure the degree of glomerular damage and renal interstitial fibrosis. Images were obtained using a Nikon Eclipse 55i microscope and NIS-Elements D 3.0 software equipped with Nikon DS-Fil color camera (Nikon, Melville, N.Y.). The degree of glomerular damage was assessed by the blinded experimenter, rating from 0 to 4+ for 30-40 […]. […]

The mark [1] stands for this setting: 25 mg/kg daily 3 weeks, Masson's trichrome.
The mark [2] stands for this setting: 25 mg/kg daily, after two weeks of treatment.
The mark [3] stands for this setting: basal, before treatment, mean±SEM.

In the case of `COc1ccc(CCN(Cc2ccc(C(=O)O)cc2)c2nc3cccc(F)c3s2)cc1` [BC-KI-00053, 4-({(7-fluorobenzo[d]thiazol-2-yl)[2-(4-methoxyphenyl)ethyl]amino}methyl)benzoic acid], for the setting “25 mg/kg daily 3 weeks”, the “renal tissue infiltration of monocytes/macrophages (CD68 IHC)” value is listed as “significantly reduced”. For the same compound, under setting [1], the cortical fibrosis was 5.79±0.48%. Besides, the renal medulla fibrosis under setting [1] stood at 7.40±0.56%. The compound also returned a cardiac fibrosis (25 mg/kg daily 3 weeks, Sirius red, right ventricular insertion point) of 9.14±2.18%. Besides, the “mean glomerular injury score” value (25 mg/kg daily 3 weeks, score 0 to 4+) is 1.49±0.05. Moreover, where the note is “25 mg/kg daily gavage, 3 weeks”, the “body weight reduction during the study period” value is “approximately 10%”. The compound also had an MAP (25 mg/kg daily, after one week of treatment) of 174.4±3.83 mmHg; an MAP under setting [2] of 168.8±3.74 mmHg; an MAP (25 mg/kg daily, three weeks) of 176.9±5.83 mmHg; an MAP under setting [3] of 120.1±0.62 mmHg. In addition, the proteinuria reads like this: under setting [2], 285.5 ± 47.48 mg/day; (25 mg/kg daily, study completed (3 weeks)) 433.1 ± 60.59 mg/day; (baseline, before treatment) 51.0 ± 4.9 mg/day. This compound also returned a plasma creatinine concentration (25 mg/kg daily, end of experiment) of 0.48 ± 0.02 mg/dL. Besides, under setting [3], the basal body weight amounted to 304.7 ± 5.39 g.

Values taken from US11378572B2, “Therapeutic agent for immune cell migration-caused disease and method for screening same” (ZYMEDI CO., LTD., priority 2017, dated 2022).
